Source: ChEMBL document CHEMBL1201862, “PubChem BioAssay data set” (2004)
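Each compound was tested at five concentrations against cells in 96-well plates for 48 hours. Here, GI50 denotes the concentration required for 50% inhibition of growth.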 Active and inactive are the calls of the source. Cut-off read from the data, not from the text of the source: active = GI50 up to about 1.1 µM and inactive = higher.

Legend:
Test in all cases: NCI-60 cell line screen, 48 h
U-251 = system: U-251
NCI/ADR-RES = system: NCI/ADR-RES
HOP-62 = system: HOP-62
Hs-578T = system: Hs-578T
OVCAR-3 = system: OVCAR-3
BT-549 = system: BT-549
SF-539 = system: SF-539
COLO 205 = system: COLO 205
HCT-116 = system: HCT-116
OVCAR-5 = system: OVCAR-5
SF-268 = system: SF-268
HCC 2998 = system: HCC 2998
A498 = system: A498
A549 = system: A549
NCI-H226 = system: NCI-H226
NCI-H522 = system: NCI-H522
HOP-92 = system: HOP-92
SR = system: SR
CAKI-1 = system: CAKI-1
XF498 = system: XF498

Measured: GI50

C=C1CC(CNc2cc(Cl)nc(N)n2)C1
inactive: U-251 55.6 µM | NCI/ADR-RES 62.7 µM | HOP-62 > 100 µM | Hs-578T 51.4 µM | OVCAR-3 95.7 µM | BT-549 77.3 µM | SF-539 > 100 µM | COLO 205 > 100 µM | HCT-116 > 10 µM | OVCAR-5 > 100 µM | SF-268 > 100 µM | HCC 2998 > 100 µM | A498 1.99 µM | A549 > 100 µM | NCI-H226 54.2 µM | NCI-H522 96.8 µM | HOP-92 78.2 µM | SR > 100 µM | CAKI-1 74.5 µM

Cc1[nH]n(-c2ccccc2)c(=O)c1C(N(CCc1ccccc1)C1=NCC(C)S1)(C(F)(F)F)C(F)(F)F (stereo not drawn)
inactive: U-251 7.41 µM | NCI/ADR-RES 18.9 µM | HOP-62 24.3 µM | Hs-578T 20.5 µM | OVCAR-3 8.77 µM | BT-549 10.4 µM | SF-539 16.7 µM | COLO 205 6.27 µM | HCT-116 10.1 µM | OVCAR-5 8.65 µM | SF-268 21.4 µM | HCC 2998 13.4 µM | A498 11.9 µM | A549 15.1 µM | NCI-H226 6.28 µM | NCI-H522 4.35 µM | SR 22.3 µM | CAKI-1 13.5 µM
active: HOP-92 0.352 µM

C=CCOC(=O)[C@@H]1C[C@@H](OC(C)(C)C)CN1C(=O)[C@@H]1[C@H]2OC(C)(C)O[C@H]2CN1C(=O)OCC1c2ccccc2-c2ccccc21
inactive: U-251 12.6 µM | NCI/ADR-RES 3.68 µM | HOP-62 1.75 µM | Hs-578T 21.1 µM | OVCAR-3 17.9 µM | BT-549 20.1 µM | SF-539 14.8 µM | COLO 205 18.1 µM | HCT-116 17.4 µM | OVCAR-5 16.9 µM | SF-268 20.8 µM | HCC 2998 17.1 µM | A498 15.7 µM | A549 15.3 µM | NCI-H226 21.5 µM | HOP-92 18.1 µM | SR 8.05 µM | CAKI-1 4.88 µM
active: NCI-H522 0.383 µM

O=C1NC(NCc2ccc(F)cc2)=N/C1=C\c1ccccc1Cl
inactive: U-251 14.7 µM | NCI/ADR-RES 20.1 µM | HOP-62 19.1 µM | Hs-578T 30.5 µM | OVCAR-3 16.5 µM | BT-549 23.7 µM | SF-539 32.1 µM | COLO 205 17.4 µM | HCT-116 14.5 µM | OVCAR-5 16.8 µM | SF-268 24.2 µM | HCC 2998 26.3 µM | A498 16.8 µM | A549 17.2 µM | NCI-H226 18.1 µM | NCI-H522 13.8 µM | HOP-92 6.97 µM | SR 14.1 µM | CAKI-1 23.9 µM

O=C(NCCCN1CCN(CCCNC(=O)c2cc(-c3ccccc3)nc3ccccc23)CC1)c1cc(-c2ccccc2)nc2ccccc12
inactive: U-251 12.5 µM | NCI/ADR-RES 24.1 µM | HOP-62 16.1 µM | Hs-578T 13.2 µM | OVCAR-3 27.7 µM | BT-549 17.6 µM | SF-539 15.2 µM | COLO 205 8.77 µM | HCT-116 23.4 µM | OVCAR-5 29.6 µM | SF-268 > 38.5 µM | HCC 2998 2.88 µM | A498 33.9 µM | A549 20.6 µM | NCI-H226 27.7 µM | NCI-H522 14 µM | HOP-92 5.6 µM | SR 3.37 µM | CAKI-1 7.59 µM

COC(=O)N/N=C(/CCC(=O)Nc1ccc(C)c(C)c1)CC(=O)C(C)(C)C
inactive: U-251 > 100 µM | XF498 > 100 µM | HOP-62 > 100 µM | OVCAR-3 > 100 µM | SF-539 > 100 µM | COLO 205 > 100 µM | OVCAR-5 > 100 µM | SF-268 > 100 µM | HCC 2998 > 100 µM | A549 > 100 µM | NCI-H226 > 100 µM | NCI-H522 > 100 µM | CAKI-1 > 100 µM

CCOC(=O)N1CCNCCN(C(=O)OCC)CCNCC1
inactive: U-251 > 100 µM | NCI/ADR-RES > 100 µM | HOP-62 > 100 µM | Hs-578T > 100 µM | OVCAR-3 > 100 µM | BT-549 > 100 µM | SF-539 > 100 µM | COLO 205 > 100 µM | HCT-116 > 100 µM | OVCAR-5 > 100 µM | SF-268 > 100 µM | HCC 2998 > 100 µM | A498 > 100 µM | A549 > 100 µM | NCI-H226 > 100 µM | NCI-H522 > 100 µM | HOP-92 > 100 µM | SR > 100 µM | CAKI-1 > 100 µM

COc1ccccc1NC1=NCC(C)S1 (stereo not drawn)
inactive: U-251 > 100 µM | NCI/ADR-RES > 100 µM | HOP-62 > 100 µM | Hs-578T > 100 µM | OVCAR-3 > 100 µM | BT-549 > 100 µM | SF-539 > 100 µM | COLO 205 > 100 µM | HCT-116 > 100 µM | OVCAR-5 > 100 µM | SF-268 > 100 µM | HCC 2998 > 100 µM | A498 > 100 µM | A549 > 100 µM | NCI-H226 > 100 µM | NCI-H522 > 100 µM | HOP-92 > 100 µM | SR > 100 µM | CAKI-1 > 100 µM

COC(=O)C1(Cc2ccc3c(c2)CCC3)Cc2ccc3c(c2C1O)CCC3 (stereo not drawn)
inactive: U-251 15.8 µM | NCI/ADR-RES 12.6 µM | HOP-62 14.7 µM | Hs-578T 17.3 µM | OVCAR-3 13.8 µM | BT-549 14.9 µM | SF-539 21.2 µM | COLO 205 12.9 µM | HCT-116 11.8 µM | SF-268 21 µM | HCC 2998 17.1 µM | A498 11.7 µM | A549 14.1 µM | NCI-H226 18.5 µM | NCI-H522 10.9 µM | HOP-92 10.1 µM | SR 12 µM | CAKI-1 14.2 µM

O=c1[nH]/c(=C/c2ccc(OCc3ccccc3)cn2)c(=O)[nH]/c1=C/c1cccnc1
inactive: BT-549 14.2 µM | COLO 205 2.07 µM | OVCAR-5 1.39 µM | HCC 2998 1.19 µM | HOP-92 > 35.2 µM
active: U-251 0.581 µM | NCI/ADR-RES 0.345 µM | HOP-62 0.497 µM | Hs-578T 0.526 µM | OVCAR-3 0.23 µM | SF-539 0.401 µM | HCT-116 0.342 µM | SF-268 0.542 µM | A498 0.209 µM | A549 0.804 µM | NCI-H226 0.904 µM | NCI-H522 0.182 µM | SR 0.5 µM | CAKI-1 0.479 µM

Cc1cc2nc(-c3c(F)cccc3F)n(Cc3c(F)cccc3F)c2cc1C
inactive: U-251 11.1 µM | NCI/ADR-RES 18.5 µM | HOP-62 14.4 µM | Hs-578T 19.2 µM | OVCAR-3 16.4 µM | BT-549 13.2 µM | SF-539 18.5 µM | COLO 205 15.2 µM | HCT-116 12.1 µM | OVCAR-5 16.6 µM | SF-268 18.8 µM | HCC 2998 9.71 µM | A498 20.1 µM | A549 12.1 µM | NCI-H226 15.7 µM | NCI-H522 12.7 µM | HOP-92 12.7 µM | SR 11.3 µM | CAKI-1 15.2 µM

COC(=O)[C@]1(c2cc3ccccc3n2S(=O)(=O)c2ccccc2)CC2CN(C(C)=O)C1CC2=O (stereo partly drawn)
inactive: U-251 1.6 µM | NCI/ADR-RES 2.87 µM | HOP-62 5.08 µM | Hs-578T 5.94 µM | OVCAR-3 1.99 µM | BT-549 2.61 µM | SF-539 2.91 µM | COLO 205 2.42 µM | HCT-116 1.89 µM | OVCAR-5 3.3 µM | SF-268 2.34 µM | HCC 2998 3.23 µM | A498 9.64 µM | A549 3.05 µM | NCI-H226 2.17 µM | NCI-H522 1.75 µM | HOP-92 5.52 µM | SR 1.59 µM | CAKI-1 2.68 µM

C/C(=N\O)c1cccc(Nc2c3ccccc3nc3occc23)c1
inactive: U-251 13.6 µM | NCI/ADR-RES 2.3 µM | HOP-62 3.13 µM | Hs-578T 8.61 µM | OVCAR-3 4.73 µM | BT-549 3.29 µM | SF-539 4.25 µM | COLO 205 5.09 µM | HCT-116 3.52 µM | OVCAR-5 48 µM | SF-268 13.3 µM | HCC 2998 4.89 µM | A498 16.7 µM | A549 4.93 µM | NCI-H226 14.1 µM | NCI-H522 1.74 µM | HOP-92 7.24 µM | SR 2.79 µM | CAKI-1 1.96 µM

COc1cc2nc(Cl)nc(NS(=O)(=O)c3cc4ccccc4s3)c2cc1OC
inactive: U-251 27.3 µM | NCI/ADR-RES 39.8 µM | HOP-62 31.5 µM | Hs-578T 40.6 µM | OVCAR-3 19 µM | BT-549 22.9 µM | SF-539 37.2 µM | COLO 205 38.1 µM | HCT-116 30.2 µM | OVCAR-5 19.6 µM | SF-268 35.3 µM | HCC 2998 19 µM | A498 16.4 µM | A549 32 µM | NCI-H226 36.8 µM | NCI-H522 31.3 µM | HOP-92 18 µM | SR 23.4 µM | CAKI-1 33.3 µM

CC1(C)CCCCCCC2OC2CCCCCC(C)(C)C1=O (stereo not drawn)
inactive: U-251 24.3 µM | NCI/ADR-RES 25.9 µM | HOP-62 49.8 µM | Hs-578T 45.1 µM | OVCAR-3 34.1 µM | BT-549 27.5 µM | SF-539 > 94.8 µM | COLO 205 14.4 µM | HCT-116 35.8 µM | OVCAR-5 > 62.1 µM | SF-268 50.2 µM | HCC 2998 40.6 µM | A498 > 84.9 µM | A549 39.3 µM | NCI-H226 > 56.4 µM | NCI-H522 22.1 µM | HOP-92 27 µM | SR 27.5 µM | CAKI-1 20.5 µM
